Experimental data taken from PubChem BioAssay (NCI).
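Five concentrations, 48 hours, 96-well plates. At the TGI there is no net growth.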

What was measured:
Test in all cases: inhibition of tumour cell growth, NCI panel, 48 h
[1] = system: 786-0 renal
[2] = system: DLD-1 colon
[3] = system: DMS 273 small cell lung
[4] = system: IGROV1 ovarian
[5] = system: KM20L2 colon
[6] = system: MOLT-4 leukemia
[7] = system: NCI-H226 lung
[8] = system: NCI-H460 lung
[9] = system: OVCAR-4 ovarian
[10] = system: OVCAR-8 ovarian
[11] = system: SNB-19 CNS

Measured: TGI

C=CC(=O)NCNC(=O)C=C
> 100 µM: all assays above

O=[N+]([O-])c1ccc(CN=C2NNS(=O)(=O)c3ccccc32)cc1
> 100 µM: all assays above
